Source: patent US20240208934A1, “ULK1/2 INHIBITORS AND THEIR USE THEREOF” (LifeArc, priority 2021, published 2024)

Each compound was assayed on ULK (assay: ULK radiometric assay (33P incorporation onto MBP substrate, glass fiber capture filter)). Settings: ULK Biochemical activity; 20 uM ATP, 0.2 mg/mL MBP; averages of at least two independent experiments.
Experimental: ULK activity was measured using a radiometric assay, to measure the incorporation of radiolabelled ^33P onto MBP substrate using a glass fiber capture filter method. Reaction conditions were 0.2 mg/mL MBP, 20 uM ATP (0.25 μCi/well), 50 mM Tris HCl, pH7.5, 10 mM MgCl2, 0.1% beta-mercaptoethanol, 0.1 mM EGTA, 0.01% BSA. Ten point Half log Compound dilution series were prepared in 100% DMSO and added to the reaction to give final assay concentration of 10% DMSO. Compounds were tested in duplicate and values normalized to 10% DMSO only controls. The data were fitted to a four parameter fit equation and the IC50 values shown are averages of at least two independent experiments.

| SMILES | IC50 [nM] |
| --- | --- |
| CCOc1nn(C)cc1Nc1ncc(C(F)(F)F)c(NCCCN2CCCCC2=O)n1 [Example 46, 1-[3-[[2-[(3-Ethoxy-1-methyl-pyrazol-4-yl)amino]-5-(trifluoromethyl)pyrimidin-4-yl]amino]propyl]piperidin-2-one] | 200 to 1000 |
| O=C1CCCCN1CCCNc1nc(Nc2cc(OCCN3CCOCC3)ccc2Cl)ncc1C(F)(F)F [Example 59, 1-[3-[[2-[2-Chloro-5-(2-morpholinoethoxy)anilino]-5-(trifluoromethyl)pyrimidin-4-yl]amino]propyl]piperidin-2-one] | 200 to 1000 |
| O=C1CCCCN1CCCNc1nc(Nc2ccc3c(c2)CCNC3)ncc1C(F)(F)F [Example 19, 1-[3-[[2-(1,2,3,4-Tetrahydroisoquinolin-6-ylamino)-5-(trifluoromethyl)pyrimidin-4-yl]amino]propyl]piperidin-2-one] | < 200 |
| COc1cc2c(cc1Nc1ncc(C(F)(F)F)c(NCCCN3CCCCC3=O)n1)CNCC2 [Example 20, 1-[3-[[2-[(6-Methoxy-1,2,3,4-tetrahydroisoquinolin-7-yl)amino]-5-(trifluoromethyl)pyrimidin-4-yl]amino]propyl]piperidin-2-one] | < 200 |
| O=C1CCCCN1CCCNc1nc(Nc2ccc3c(c2)COCC3)ncc1C(F)(F)F [Example 25, 1-[3-[[2-(Isochroman-7-ylamino)-5-(trifluoromethyl)pyrimidin-4-yl]amino]propyl]piperidin-2-one] | < 200 |
| O=C1CCCCN1CCCNc1nc(Nc2cc(S(=O)(=O)N3CCNCC3)cc3c2OCC3)ncc1C(F)(F)F [Example 52, 1-[3-[[2-[(5-Piperazin-1-ylsulfonyl-2,3-dihydrobenzofuran-7-yl)amino]-5-(trifluoromethyl)pyrimidin-4-yl]amino]propyl]piperidin-2-one] | 200 to 1000 |
| CCOc1cc2c(cc1Nc1ncc(C(F)(F)F)c(NCCCN3CCCCC3=O)n1)CNCC2 [Example 21, 1-[3-[[2-[(6-Ethoxy-1,2,3,4-tetrahydroisoquinolin-7-yl)amino]-5-(trifluoromethyl)pyrimidin-4-yl]amino]propyl]piperidin-2-one] | < 200 |
| CN1CCC(Oc2cccc(Nc3ncc(C4CC4)c(NCCCN4CCCCC4=O)n3)c2)CC1 [Example 16, 1-(3-((5-Cyclopropyl-2-((3-((1-methylpiperidin-4-yl)oxy)phenyl)amino)pyrimidin-4-yl)amino)propyl)piperidin-2-one] | < 200 |
| COc1cc2c(cc1Nc1ncc(C3CC3)c(NCCCNC(=O)C3CCC3)n1)CNCC2 [Example 74, N-[3-[[5-cyclopropyl-2-[(6-methoxy-1,2,3,4-tetrahydroisoquinolin-7-yl)amino]pyrimidin-4-yl]amino]propyl]cyclobutanecarboxamide] | ≥ 1000 |
| COc1cc2c(cc1Nc1ncc(C(F)(F)F)c(NCCCn3cccn3)n1)CNCC2 [Example 73, N2-(6-methoxy-1,2,3,4-tetrahydroisoquinolin-7-yl)-N4-(3-pyrazol-1-ylpropyl)-5-(trifluoromethyl)pyrimidine-2,4-diamine] | ≥ 1000 |
| CN1CCC(Oc2cccc(Nc3ncc(C(F)(F)F)c(NCCCN4CCCCC4=O)n3)c2)CC1 [Example 8, 1-[3-[[2-[3-[(1-Methyl-4-piperidyl)oxy]anilino]-5-(trifluoromethyl)pyrimidin-4-yl]amino]propyl]piperidin-2-one] | < 200 |
| CN1CCc2cc(Nc3ncc(C(F)(F)F)c(NCCCN4CCCC4=O)n3)ccc2C1 [Example 76, 1-[3-[[2-[(2-Methyl-3,4-dihydro-1H-isoquinolin-6-yl)amino]-5-(trifluoromethyl)pyrimidin-4-yl]amino]propyl]pyrrolidin-2-one] | < 200 |
| COc1ccccc1Nc1ncc(C(F)(F)F)c(NCCCN2CCCCC2=O)n1 [Example 30, 1-[3-[[2-(2-Methoxyanilino)-5-(trifluoromethyl)pyrimidin-4-yl]amino]propyl]piperidin-2-one] | ≥ 1000 |
| FC(F)(F)c1cnc(Nc2ccc3c(c2)CCNC3)nc1NCC1CNCCO1 (stereo not drawn) [Example 63, N4-(morpholin-2-ylmethyl)-N2-(1,2,3,4-tetrahydroisoquinolin-6-yl)-5-(trifluoromethyl)pyrimidine-2,4-diamine] | < 200 |
| COc1cc(C(=O)N2CCOCC2)ccc1Nc1ncc(C(F)(F)F)c(NCCCN2CCCCC2=O)n1 [Example 38, 1-[3-[[2-[2-Methoxy-4-(morpholine-4-carbonyl)anilino]-5-(trifluoromethyl)pyrimidin-4-yl]amino]propyl]piperidin-2-one] | ≥ 1000 |
| O=C1CCCCN1CCCNc1nc(Nc2ccc(N3CCOCC3)cc2Cl)ncc1C(F)(F)F [Example 54, 1-[3-[[2-(2-Chloro-4-morpholino-anilino)-5-(trifluoromethyl)pyrimidin-4-yl]amino]propyl]piperidin-2-one] | < 200 |
| COc1cc(C(=O)O)ccc1Nc1ncc(C(F)(F)F)c(NCCCN2CCCCC2=O)n1 [Example 36, 3-Methoxy-4-[[4-[3-(2-oxo-1-piperidyl)propylamino]-5-(trifluoromethyl)pyrimidin-2-yl]amino]benzoic acid] | ≥ 1000 |
| N[C@H]1CC[C@H](Nc2nc(Nc3ccc(N4CCOCC4)cc3)ncc2C(F)(F)F)CC1 [Example 88, N4-(4-aminocyclohexyl)-N2-(4-morpholinophenyl)-5-(trifluoromethyl)pyrimidine-2,4-diamine] | 200 to 1000 |
| O=C1CCCCN1CCCNc1nc(Nc2cc(S(=O)(=O)N3CCOCC3)cc3c2OCC3)ncc1C(F)(F)F [Example 51, 1-[3-[[2-[(5-Morpholinosulfonyl-2,3-dihydrobenzofuran-7-yl)amino]-5-(trifluoromethyl)pyrimidin-4-yl]amino]propyl]piperidin-2-one] | ≥ 1000 |
| FC(F)(F)c1cnc(Nc2ccc(N3CCOCC3)cc2)nc1NCCc1c[nH]cn1 [Example 91, N4-[2-(1H-imidazol-4-yl)ethyl]-N2-(4-morpholinophenyl)-5-(trifluoromethyl)pyrimidine-2,4-diamine] | 200 to 1000 |
| COc1nn(C)cc1Nc1ncc(C(F)(F)F)c(NCCCN2CCCCC2=O)n1 [Example 27, 1-[3-[[2-[(3-Methoxy-1-methyl-pyrazol-4-yl)amino]-5-(trifluoromethyl)pyrimidin-4-yl]amino]propyl]piperidin-2-one] | < 200 |
| COc1cc2c(cc1Nc1ncc(C(F)(F)F)c(NCCC(=O)N3CCOCC3)n1)CNCC2 [Example 79, 3-[[2-[(6-Methoxy-1,2,3,4-tetrahydroisoquinolin-7-yl)amino]-5-(trifluoromethyl)pyrimidin-4-yl]amino]-1-morpholino-propan-1-one] | 200 to 1000 |
| CN1CCc2ccc(Nc3ncc(C4CC4)c(NCCCN4CCCC4=O)n3)cc2C1 [Example 10, 1-(3-((5-Cyclopropyl-2-((2-methyl-1,2,3,4-tetrahydroisoquinolin-7-yl)amino)pyrimidin-4-yl)amino)propyl)pyrrolidin-2-one] | < 200 |

The next lines start with the values.

| IC50 [nM] | SMILES |
| --- | --- |
| 200 to 1000 | O=C1CCCCN1CCCNc1nc(Nc2cc(OC3CCNCC3)ccc2Cl)ncc1C(F)(F)F [Example 44, 1-[3-[[2-[2-Chloro-5-(4-piperidyloxy)anilino]-5-(trifluoromethyl)pyrimidin-4-yl]amino]propyl]piperidin-2-one] |
| 200 to 1000 | CN(C)CCCN(C)c1nc(Nc2ccc3c(c2)CCNC3)ncc1C(F)(F)F [Example 64, N4-[3-(dimethylamino)propyl]-N4-methyl-N2-(1,2,3,4-tetrahydroisoquinolin-6-yl)-5-(trifluoromethyl)pyrimidine-2,4-diamine] |
| < 200 | CN1CCc2ccc(Nc3ncc(C4CC4)c(NC4CC4)n3)cc2C1 [Example 18, N4,5-dicyclopropyl-N2-(2-methyl-1,2,3,4-tetrahydroisoquinolin-7-yl)pyrimidine-2,4-diamine] |
| 200 to 1000 | CN(C)CCOc1ccc(Cl)c(Nc2ncc(C(F)(F)F)c(NCCCN3CCCCC3=O)n2)c1 [Example 58, 1-[3-[[2-[2-Chloro-5-[2-(dimethylamino)ethoxy]anilino]-5-(trifluoromethyl)pyrimidin-4-yl]amino]propyl]piperidin-2-one] |
| ≥ 1000 | CC(C)Oc1nn(C)cc1Nc1ncc(C(F)(F)F)c(NCCCN2CCCCC2=O)n1 [Example 49, 1-[3-[[2-[(3-Isopropoxy-1-methyl-pyrazol-4-yl)amino]-5-(trifluoromethyl)pyrimidin-4-yl]amino]propyl]piperidin-2-one] |
| ≥ 1000 | COc1ccc(CO)cc1Nc1ncc(C(F)(F)F)c(NCCCN2CCCCC2=O)n1 [Example 47, 1-[3-[[2-[5-(Hydroxymethyl)-2-methoxy-anilino]-5-(trifluoromethyl)pyrimidin-4-yl]amino]propyl]piperidin-2-one] |
| ≥ 1000 | COc1ccc(N2CCNCC2)cc1Nc1ncc(C(F)(F)F)c(NCCCN2CCCCC2=O)n1 [Example 22, 4-[4-methoxy-3-[[4-[3-(2-oxo-1-piperidyl)propylamino]-5-(trifluoromethyl)pyrimidin-2-yl]amino]phenyl]piperazine] |
| ≥ 1000 | CN1CCc2cc(Nc3ncc(C4CC4)c(NCCCN4CCCC4)n3)ccc2C1 [Example 15, 5-Cyclopropyl-N2-(2-methyl-1,2,3,4-tetrahydroisoquinolin-6-yl)-N4-(3-(pyrrolidin-1-yl)propyl)pyrimidine-2,4-diamine] |
| < 200 | O=C1CCCCN1CCCNc1nc(Nc2ccc3c(c2)CNCC3)ncc1C(F)(F)F [Example 83, 1-[3-[[2-(1,2,3,4-Tetrahydroisoquinolin-7-ylamino)-5-(trifluoromethyl)pyrimidin-4-yl]amino]propyl]piperidin-2-one] |
| ≥ 1000 | COc1ccc(CN2CCOCC2)cc1Nc1ncc(C(F)(F)F)c(NCCCN2CCCCC2=O)n1 [Example 61, 1-[3-[[2-[2-Methoxy-5-(morpholinomethyl)anilino]-5-(trifluoromethyl)pyrimidin-4-yl]amino]propyl]piperidin-2-one] |
